Data as given in patent publication US12391701B2, “Chromene-based compounds, methods and uses thereof” (University of Minho, priority 2019, dated 2025).
≈ marks a conversion by molar mass, not a printed value.

Experiments:
[1] = Highest soluble concentration in C. elegans assay; type: physicochemical; conditions: C. elegans liquid culture medium (S-medium) with 1% DMSO, 20 °C, aqueous buffer, kinetic from dmso stock, read-out: highest soluble concentration possible
Procedure: The compounds were tested at several concentrations, up to the highest soluble concentration possible −150 μM (MC369, 75 μM) (FIG. 12). […] The rate of food consumption between days 3-5 was used as an indication for worm development, health and fertility and compared to 1% DMSO, (vehicle, not toxic).
In an embodiment, Bristol strain N2 (provided by the CGC, funded by the NIH Office of Research Infrastructure Programs—P40 OD010440) was used to test each compound's toxicity based on a food clearance assay using C. elegans. The assay was performed on 96-well plates in liquid culture (Voisine et al. 2007; Teixeira-Castro et al. 2015). Each well, with a final volume of 60 μL, comprised the following: approximately 20 worms in egg stage, OP50 bacteria to a final OD of 0.6-0.8 (595 nm) and each compound at the appropriate concentration. The worms were grown with continuous shaking at 180 rpm/20° C. (Shel lab Si series incubator) for 7 days and the absorbance (OD595) was measured daily on a microplate reader (Tecan Infinite M200). The effect of the compounds on C. elegans physiology was monitored by the rate at which the E. coli food suspension was consumed (FIG. 14). Age-synchronized worm eggs were obtained by “egg prep” as follows: adult worms were treated with an alkaline hypochlorite solution (20% bleach, 25% 1M NaOH) for 6 minutes, thereafter centrifuged and washed in M9 buffer twice. […]

C57BI/6 mice = test: Toxicity in C57BI/6 mice, 1st trial; type: in vivo
Procedure: In an embodiment, the safety profiles of the compounds were evaluated in rodents. […] FIG. 13A is a schematic representation of the experiment timeline. 5-month old female and male animals were used (n=3/group/gender) and injected either with MC408 3 mg/Kg or vehicle (saline, Tween80 and methylcellulose) (i.p.) daily for 7 days. A battery of welfare tests was performed daily. […] The activity was measured in a viewing jar and the number of vertical movements were counted for 5 minutes. […] The activity was recorded in an open arena labelled with squares and the number of squares were counted while the animals were freely exploring for 1 minute. […] In FIGS. 13G and H, water and food intake were analysed respectively. Each day, […] of food and 200 mL of water were placed in each cage. […] Data is presented as mean±SE.
In an embodiment, C57/BI6 female and male mice (n=3/group/gender) were intraperitoneally injected with MC408 (3 mg/Kg) or vehicle (saline, Tween80 and methylcellulose) daily, for 7 days to determine toxicity of the compounds in mice model. A battery of tests to assess mice welfare were performed daily. Immediately after the first drug administration, animals were videotaped and the immediate effects of MC408 were recorded. The number of vertical movements and the immobility time were recorded. Water and food intake were evaluated during the 7 days of the experiment, by adding a fixed amount of food and water in the animal's home cage in the 1st day and measuring the remaining amount at day 7. Body weight was assessed every day in a dynamic mouse scale. Horizontal and vertical activity was analysed to evaluate animals' intrinsic exploratory behavior; these were measured in an open arena with labelled squares for 1 minute and in a viewing jar for 5 minutes, respectively. Furthermore, the number of bolus faecalis were also counted while animals were performing the daily behavior assessment protocols, as a measure of anxiety. A battery of tests more related to animal welfare was applied by the experimenter, including measurements of: (i) body position and curvature; (ii) spontaneous activity; (iii) respiratory rate; (iv) eyelid opening and reflexes; (v) skin picking to analyse dehydration; (vi) grooming; (vii) fur erection; (viii) tremors; (ix) limb clasping and (x) reaction to transfer. At day 7, the animals were euthanized. All animals were deeply anesthetized (ketamine hydrochloride (150 mg/kg) and medetomidine (0.3 mg/kg)) and transcardially perfused with a saline solution (NaCl 0.9% (wt/v)). Blood was collected from the cava vein, centrifuged for 10 minutes at 13.000 rpm and the plasma was transferred to a new tube and stored at −80° C. until further processing for enzymatic liver function measurements using standard techniques. The organs (kidney, intestine, stomach, brain, liver, ovary/testis) were harvested and placed in tubes containing 4% paraformaldehyde and further processed for paraffin embedding and pathology analysis.

[2] = test system: TNBC cell line MDA-MB-231; test: Orthotopic breast cancer xenograft in NSG mice; type: in vivo
Procedure: In an embodiment, the in vivo therapeutic efficacy of compound MC408 was analysed using the mouse model. […] MDA-MB-231 cells were injected into the mammary fat pad of NSG mice (n=6 or 7 per group). Treatment was administered 3 days post-implantation for one week. NT=Vehicle; Dose 1=3 mg/kg; Dose 2=10 mg/kg; Dose 3=50 mg/kg. *, p<0.05; **, p<0.01; ****, p<0.0001 (compared to NT group; two-way ANOVA post-hoc Tukey's test or unpaired t-test with Welch's correction).
In an embodiment, NSG (NOD Scid Gamma) female mice (3-6 months) were injected with a mixture of 0.6×10^6 MDA-MB-231 breast cancer cells and matrigel (ratio 1:1) in the mammary fat pad. Mice were randomly assigned to treatment groups (at least 6 mice/group), which was started 3 days post-implantation using 3 independent doses of compound MC408 (dose 1=3 mg/kg, dose 2=10 mg/kg, and dose 3=50 mg/kg) or vehicle (PBS 1× and Matrigel, ratio 1:1), and was administered daily for 7 days. Mice were maintained under standard laboratory conditions. Animal tumor size (calculated by measuring the two largest sides and applying the formula: v=3.14×L1×L1×L2/6; being L1 the largest side, and L2 the other one) was measured and recorded regularly. At day 47 post-implantation, animals were sacrificed and tumors were excised. All animal procedures were conducted in accordance with the guidelines for the care and use of laboratory animals (European Directive 2010/63/EU).

[3] = 3, 10, 50 mg/kg daily for 7 days, dose-dependent

SMILES: COc1cccc2c1Oc1nc(-c3ccccc3F)[nH]c1C2C1c2cccc(OC)c2Oc2nc(-c3ccccc3F)[nH]c21 (stereo not shown) [MC369, 2,2′-bis(2-fluorophenyl)-5,5′-dimethoxy-1,1,9,9′-tetrahydro-9,9′-bichromeno[2,3-]imidazoles]
- solubility [1]: 75 µM (≈ 44.3 µg/mL)

SMILES: COc1cccc2c1Oc1nc(-c3ccc(Br)cc3)[nH]c1C2 [MC408, 2-(4-bromophenyl)-5-methoxy-3,9-dihydrochromeno[2,3-d]imidazoles]
- exploratory activities (vertical and horizontal) (C57BI/6 mice; 3 mg/Kg i.p. daily for 7 days): No differences were found
- number of bolus faecalis (indirect measure of anxiety) (C57BI/6 mice; 3 mg/Kg i.p. daily for 7 days): no differences were observed
- body weight (C57BI/6 mice; 3 mg/Kg i.p. daily for 7 days, 1st trial): no differences were found
- water and food intake (C57BI/6 mice; 3 mg/Kg i.p. daily, measured at day 7): no differences were found
- battery of welfare tests (C57BI/6 mice; 3 mg/Kg i.p. daily, vs vehicle): no impact
- immobility time and vertical movement (REARS) immediately after first injection (C57BI/6 mice; 3 mg/Kg i.p., 10 min, vs vehicle): No differences were found
- serum AST and ALT (enzymatic liver function) (C57BI/6 mice; day 7, females and males, vs vehicle): No statistical differences
- tumor volume [2, 3]: significantly decreased
- tumor weight [2, 3]: significantly decreased
- reduction of tumor volume comparing to the vehicle group ([2]; dose of 50 mg/kg): more than 40%
- reduction of tumor weight comparing to the vehicle group ([2]; dose of 50 mg/kg): more than 40%
- weight loss and other side effects ([2]; tested treatment regimen, whole experiment): no weight loss nor other side effects
